pIC50: −log10 of the molar value. Like-named read-outs stand apart in the source and are kept apart here.
Experiments:
[1] = test system: Aβ40 in conditioned medium of cells stably expressing Amyloid Precursor Protein (APP); experiment: In vitro BACE cell-based assay (Aβ40 in conditioned medium, sandwich ELISA); settings: Homo sapiens, read-out: HEK cell assay
How it was run: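 Step two: 10-point compound titration added, starting 100 μM or 10 μM, 0.1% DMSO. Step three: medium Aβ40 measured by ELISA, capture 3 h and detection 2 h at 4° C, TRF read.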

[2] = biological target: Beta Secretase enzyme (BACE) (Homo sapiens, UniProt P56817); experiment: In vitro enzymatic BACE FRET (fluorescence resonance energy transfer) assay; assay type: biochemical; settings: average IC50, enzyme assay; read-out: BACE 1 FRET assay
How it was run: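 Enzyme activity was measured at pH 4.2 (0.05 M acetate, 10% DMSO final, 100 uM genapol) by cleavage of a 50 nM quenched fluorogenic peptide. After one hour, Tris was added to neutralise the pH and fluorescence was recorded.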

[3] = HEK293, average IC50, HEK cells

Sequence of Beta Secretase enzyme (BACE) (P56817 46-501, species assumed): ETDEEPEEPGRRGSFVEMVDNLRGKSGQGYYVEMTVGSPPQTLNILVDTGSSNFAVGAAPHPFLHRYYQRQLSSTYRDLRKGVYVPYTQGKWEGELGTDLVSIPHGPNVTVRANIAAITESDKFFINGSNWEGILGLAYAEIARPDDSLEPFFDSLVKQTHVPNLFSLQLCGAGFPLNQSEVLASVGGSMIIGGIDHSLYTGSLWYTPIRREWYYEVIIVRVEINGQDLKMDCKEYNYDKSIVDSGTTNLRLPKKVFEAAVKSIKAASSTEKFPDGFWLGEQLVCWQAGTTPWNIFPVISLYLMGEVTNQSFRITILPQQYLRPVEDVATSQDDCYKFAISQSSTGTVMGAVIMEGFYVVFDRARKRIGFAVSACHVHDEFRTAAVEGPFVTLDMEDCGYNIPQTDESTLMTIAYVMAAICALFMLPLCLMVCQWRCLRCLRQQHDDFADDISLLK

Row | SMILES | pIC50 [1, 3] | pIC50 [2] | pIC50 ([1]; HEK293, average IC50)
1 | NC1=N[C@@]2(CO1)c1cc(-c3ccccc3)ccc1Oc1c(F)cc(-c3cccnn3)cc12 [Example 559, (4S)-4′-fluoro-7′-phenyl-2′-(3-pyridazinyl)spiro[1,3-oxazole-4,9′-xanthen]-2-amine] | 6.82 | 7.91 | –
2 | CC1(C#Cc2cc3c(nc2F)Oc2ccc(-c4cccnc4F)cc2[C@]32COC(N)=N2)COC1 [Example 900, (5R)-2-fluoro-7-(2-fluoro-3-pyridinyl)-3-((3-methyl-3-oxetanyl)ethynyl)spiro[chromeno[2,3-b]pyridine-5,4′-[1,3]oxazol]-2′-amine] | 5.94 | 7.32 | –
3 | C[C@@H]1CN(c2cc(F)c3c(c2)[C@]2(COC(N)=N2)c2cc(-c4cnccn4)ccc2O3)C[C@H](C)O1 [Example 94, (S)-2′-((2R,6S)-2,6-dimethylmorpholino)-4′-fluoro-7′-(pyrazin-2-yl)-5H-spiro[oxazole-4,9′-xanthen]-2-amine] | – | 8.20 | 7.71
4 | NC1=N[C@]2(CO1)c1cc(N3CC[C@@H](F)C3)cc(F)c1Oc1ccc(-c3cncnc3)c(F)c12 [Example 1052, (4R)-1′,5′-difluoro-7′-((3R)-3-fluoro-1-pyrrolidinyl)-2′-(5-pyrimidinyl)spiro[1,3-oxazole-4,9′-xanthen]-2-amine] | – | 7.42 | 7.17
5 | NC1=N[C@@]2(CO1)c1cc(-c3cccnc3F)ccc1Oc1cc(F)c(C3=CCOCC3)cc12 [Example 320, (4S)-2′-(3,6-dihydro-2H-pyran-4-yl)-3′-fluoro-7′-(2-fluoro-3-pyridinyl)spiro[1,3-oxazole-4,9′-xanthen]-2-amine] | – | 8.18 | 7.22
6 | N#CC1CN(c2cc3c(cn2)Oc2ccc(-c4cccnc4)cc2[C@@]32COC(N)=N2)C1 [Example 410, 1-((5S)-2′-amino-7-(3-pyridinyl)spiro[chromeno[2,3-c]pyridine-5,4′-[1,3]oxazol]-3-yl)-3-azetidinecarbonitrile] | 6.89 | 7.54 | –
7 | N#Cc1cnc2c(c1)C1(CSC(N)=N1)c1cc(-c3cccnc3F)ccc1O2 (stereo not shown) [Example 627, 2′-amino-7-(2-fluoro-3-pyridinyl)spiro[chromeno[2,3-b]pyridine-5,4′-[1,3]thiazole]-3-carbonitrile] | 5.80 | 6.20 | –
8 | Cc1nc(F)ccc1-c1ccc2c(c1)[C@@]1(COC(N)=N1)c1cc(C3=CCOCC3)ncc1O2 [Example 251, (5S)-3-(3,6-dihydro-2H-pyran-4-yl)-7-(6-fluoro-2-methyl-3-pyridinyl)spiro[chromeno[2,3-c]pyridine-5,4′-[1,3]oxazol]-2′-amine] | – | 7.57 | 6.57
9 | NC1=N[C@@]2(CO1)c1cc(-c3cccnc3F)ccc1Oc1nc(F)c(I)cc12 [Example 898, (5S)-2-fluoro-7-(2-fluoro-3-pyridinyl)-3-iodospiro[chromeno[2,3-b]pyridine-5,4′-[1,3]oxazol]-2′-amine] | ≤ 5.00 | 4.98 | –
10 | COc1cc2c(c(F)c1F)Oc1ccc(Br)cc1[C@@]21COC(N)=N1 [Example 1003, (4S)-7′-bromo-3′,4′-difluoro-2′-methoxyspiro[1,3-oxazole-4,9′-xanthen]-2-amine] | – | 5.96 | ≤ 5.00
11 | CC(C)(C)COc1ccc2c(c1)[C@@]1(COC(N)=N1)c1cc(C3=CCOCC3)cnc1O2 [Example 503, (5S)-3-(3,6-dihydro-2H-pyran-4-yl)-7-(2,2-dimethylpropoxy)spiro[chromeno[2,3-b]pyridine-5,4′-[1,3]oxazol]-2′-amine] | 7.71 | 8.33 | –
12 | NC1=N[C@]2(CO1)c1cc(-c3cccnc3)ccc1Oc1c2cc(C2=CCOCC2)c(F)c1F (single isomer, unassigned) [Example 1006] | – | 7.82 | 6.20
13 | CC1(C#Cc2cc3c(cc2OC(F)(F)F)Oc2ccc(-c4cccnc4F)cc2[C@@]32COC(N)=N2)COC1 [Example 986, (4S)-7′-(2-fluoro-3-pyridinyl)-2′-((3-methyl-3-oxetanyl)ethynyl)-3′-(trifluoromethoxy)spiro[1,3-oxazole-4,9′-xanthen]-2-amine] | – | 6.71 | 5.55
14 | NC1=N[C@]2(CO1)c1cc(-c3cccnc3F)ccc1Oc1nc(F)ccc12 [Example 485, (5R)-2-fluoro-7-(2-fluoro-3-pyridinyl)spiro[chromeno[2,3-b]pyridine-5,4′-[1,3]oxazol]-2′-amine] | 6.07 | 6.76 | –
15 | NC1=N[C@]2(CO1)c1cc(C3=CCCOC3)cc(F)c1Oc1ccc(-c3cncnc3)c(F)c12 [Example 1049, (4R)-7′-(5,6-dihydro-2H-pyran-3-yl)-1′,5′-difluoro-2′-(5-pyrimidinyl)spiro[1,3-oxazole-4,9′-xanthen]-2-amine] | – | 7.81 | 7.07
16 | N#Cc1cc(-c2ccc3c(c2)[C@@]2(COC(N)=N2)c2cc(-c4ccnc(F)c4)cnc2O3)ccc1F [Example 786, 5-((5S)-2′-amino-3-(2-fluoro-4-pyridinyl)spiro[chromeno[2,3-b]pyridine-5,4′-[1,3]oxazol]-7-yl)-2-fluorobenzonitrile] | – | 7.98 | 7.39

Now those with a higher pIC50 [2], led by results:

Row | pIC50 [1, 3] | pIC50 [2] | pIC50 ([1]; HEK293, average IC50) | SMILES
17 | – | 9.00 | 6.85 | NC1=N[C@@]2(CS1)c1cc(-c3cccnc3F)ccc1Oc1c2cc(-c2cccnc2F)nc1F [Example 1025, (5S)-1-fluoro-3,7-bis(2-fluoro-3-pyridinyl)spiro[chromeno[2,3-c]pyridine-5,4′-[1,3]thiazol]-2′-amine]
18 | 7.72 | 8.42 | – | CC1(C#Cc2ccc3c(c2)[C@]2(COC(N)=N2)c2cc(-c4cncnc4)c(F)cc2O3)COC1 [Example 498, (4R)-3′-fluoro-7′-((3-methyl-3-oxetanyl)ethynyl)-2′-(5-pyrimidinyl)spiro[1,3-oxazole-4,9′-xanthen]-2-amine]
19 | 7.13 | 9.15 | – | NC1=N[C@@]2(CS1)c1cc(-c3cccc(Cl)c3)ccc1Oc1cnc(C3=CCOCC3)cc12 [Example 591, (5S)-7-(3-chlorophenyl)-3-(3,6-dihydro-2H-pyran-4-yl)spiro[chromeno[2,3-c]pyridine-5,4′-[1,3]thiazol]-2′-amine]
20 | 7.83 | 8.48 | – | CC1(C)C[C@@H](c2cnc3c(c2)[C@]2(COC(N)=N2)c2cc(-c4cccnc4F)ccc2O3)CCO1 [Example 470, (5S)-3-((4S)-2,2-dimethyltetrahydro-2H-pyran-4-yl)-7-(2-fluoro-3-pyridinyl)spiro[chromeno[2,3-b]pyridine-5,4′-[1,3]oxazol]-2′-amine]
21 | 7.01 | 8.42 | – | COc1ccc(-c2cnc3c(c2)[C@]2(CSC(N)=N2)c2cc(C#CC4(C)COC4)ccc2O3)cn1 [Example 941, (5S)-3-(6-methoxy-3-pyridinyl)-7-((3-methyl-3-oxetanyl)ethynyl)spiro[chromeno[2,3-b]pyridine-5,4′-[1,3]thiazol]-2′-amine]
22 | 8.14 | 8.66 | – | CC1(C)C[C@H](c2cnc3c(c2)[C@]2(COC(N)=N2)c2cc(-c4cncc(Cl)c4)ccc2O3)CCO1 [Example 475, (5S)-7-(5-chloro-3-pyridinyl)-3-((4R)-2,2-dimethyltetrahydro-2H-pyran-4-yl)spiro[chromeno[2,3-b]pyridine-5,4′-[1,3]oxazol]-2′-amine]
23 | 7.43 | 8.60 | – | CC(C)(C)C#Cc1ccc2c(c1)[C@]1(COC(N)=N1)c1cc(-c3cncnc3)c(F)cc1O2 [Example 497, (4R)-7′-(3,3-dimethyl-1-butyn-1-yl)-3′-fluoro-2′-(5-pyrimidinyl)spiro[1,3-oxazole-4,9′-xanthen]-2-amine]
24 | – | 9.15 | 8.10 | COc1ccc(-c2cc(F)c3c(c2)[C@]2(COC(N)=N2)c2cc(-c4cccnc4F)ccc2O3)nn1 [Example 275, (4S)-4′-fluoro-7′-(2-fluoro-3-pyridinyl)-2′-(6-methoxy-3-pyridazinyl)spiro[1,3-oxazole-4,9′-xanthen]-2-amine]
25 | 7.74 | 9.30 | – | N#Cc1cccc(-c2ccc3c(c2)[C@@]2(COC(N)=N2)c2cc(N4CC[C@H](F)C4)nc(F)c2O3)c1 [Example 924, 3-((5S)-2′-amino-1-fluoro-3-((3S)-3-fluoro-1-pyrrolidinyl)spiro[chromeno[2,3-c]pyridine-5,4′-[1,3]oxazol]-7-yl)benzonitrile]
26 | – | 8.52 | 7.03 | Cc1ncncc1-c1ccc2c(c1)[C@@]1(COC(N)=N1)c1cc(C3=CCOCC3)ncc1O2 [Example 808, (5S)-3-(3,6-dihydro-2H-pyran-4-yl)-7-(4-methyl-5-pyrimidinyl)spiro[chromeno[2,3-c]pyridine-5,4′-[1,3]oxazol]-2′-amine]
27 | – | 9.30 | 8.40 | Cc1ccc(-c2cc(F)c3c(c2)[C@]2(COC(N)=N2)c2cc(-c4cccnc4F)ccc2O3)nn1 [Example 114, (S)-4′-fluoro-7′-(2-fluoropyridin-3-yl)-2′-(6-methylpyridazin-3-yl)-5H-spiro[oxazole-4,9′-xanthen]-2-amine]
28 | 8.49 | 9.05 | – | NC1=N[C@@]2(CO1)c1cc(-c3cc(Cl)cnc3F)ccc1Oc1ncc(C3=CCOCC3)cc12 [Example 454, (5S)-7-(5-chloro-2-fluoro-3-pyridinyl)-3-(3,6-dihydro-2H-pyran-4-yl)spiro[chromeno[2,3-b]pyridine-5,4′-[1,3]oxazol]-2′-amine]
29 | – | 8.66 | 6.77 | NC1=N[C@@]2(CO1)c1cc(-c3cccnc3F)ccc1Oc1c(F)cc(C3=CC(=O)OC3)cc12 [Example 801, 4-((4S)-2-amino-4′-fluoro-7′-(2-fluoro-3-pyridinyl)spiro[1,3-oxazole-4,9′-xanthen]-2′-yl)-2(5H)-furanone]

From patent US8883782B2, “Spiro-tetracyclic ring compounds as beta-secretase modulators and methods of use” (Amgen Inc., priority 2010, dated 2014)
